Test results: ChEMBL document CHEMBL5223142, “Identification of potent and selective inhibitors of PKR via virtual screening and traditional design” (Bioorg Med Chem Lett, 2023)

Tests used:
[1] = biological target: T1, Interferon-induced, double-stranded RNA-activated protein kinase (Homo sapiens, UniProt P19525); assay: Inhibition of PKR (unknown origin)
[2] = biological target: T1, Interferon-induced, double-stranded RNA-activated protein kinase; assay: Inhibition of GST tagged human PKR incubated for 10 mins in presence of ATP by Kinase Glo luminescence assay

T1 sequence (P19525 whole entry): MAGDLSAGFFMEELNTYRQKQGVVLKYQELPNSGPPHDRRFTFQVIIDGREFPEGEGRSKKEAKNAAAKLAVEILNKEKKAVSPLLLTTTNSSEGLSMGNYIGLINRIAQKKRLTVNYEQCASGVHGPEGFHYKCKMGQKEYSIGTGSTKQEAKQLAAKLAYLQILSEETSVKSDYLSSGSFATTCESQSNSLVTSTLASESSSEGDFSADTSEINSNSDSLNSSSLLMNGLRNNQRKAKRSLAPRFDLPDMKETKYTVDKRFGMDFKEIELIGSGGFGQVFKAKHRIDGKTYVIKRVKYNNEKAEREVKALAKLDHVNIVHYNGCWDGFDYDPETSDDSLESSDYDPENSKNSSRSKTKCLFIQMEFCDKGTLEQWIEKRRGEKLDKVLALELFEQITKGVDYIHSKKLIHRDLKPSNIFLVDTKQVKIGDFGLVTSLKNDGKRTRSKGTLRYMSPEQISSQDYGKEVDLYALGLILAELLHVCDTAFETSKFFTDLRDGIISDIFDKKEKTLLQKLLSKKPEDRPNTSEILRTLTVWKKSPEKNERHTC

Compound | IC50 [1] [nM] | further results
CCn1cc(-c2ccc3c(c2)CCN3C(=O)Cc2cccc(OC(F)(F)F)c2)c2c(N)ncnc21 | 116 | –
COCCO[C@H]1CC[C@H](n2nc(-c3ccc(Nc4nc5cc(Cl)cc(F)c5o4)cc3)c3c(N)ncnc32)CC1 | 364 | –
Nc1ncc(-c2nnn(CCCO)n2)cc1-c1cc2cc(NC(=O)Nc3ccc(Cl)c(C(F)(F)F)c3)ccc2o1 | – | IC50 [2]: 475 nM
CC(=O)Cn1cc(-c2cnc(N)c3c(-c4ccc(NC(=O)Nc5cccc(C)c5)cc4)csc23)cn1 | 306 | –
CCc1ccc(OC(F)(F)F)cc1CC(=O)N1CCc2cc(-c3cn(CC)c4ncnc(N)c34)ccc21 | – | EC50 [1]: 37 nM
O=C(Nc1cc(-c2ccccc2)[nH]n1)c1ccc(N2CCNC2=O)cc1 | 3880 | –
CCc1ccc(OC(F)(F)F)cc1CC(=O)N1CCc2cc(-c3nn(CC)c4ncnc(N)c34)ccc21 | – | EC50 [1]: 95 nM
